Like-named read-outs stand apart in the source and are kept apart here.
Assays:
Format in all cases: biochemical
GST pi isozyme [1] = target: T1, GST pi isozyme (Mus musculus, UniProt P19157); assay: Time-dependent inhibition of GST pi with and without S-hexylglutathione; settings: haloenol lactone 2 200 μM
T1 construct: The three major mouse liver GST isoenzymes were purified according to established methods; from tissue; host or cells: liver of male CD-1 mice
Experimental: FIG. 7: Inactivation of glutathione S-transferase (GST) pi isozyme by haloenol lactone 2. The GST concentration was 1.0 μM): ●, control; ▴, +haloenol lactone 2 (200 μM), no S-hexylglutathione; ▪, +haloenol lactone 2 (200 μM), +S-hexylglutathione (2,000 μM).
Enzyme inhibition studies and enzyme assays for this experiment were performed as described in Example 3. S-hexylglutathione dissolved in a 0.1 M potassium phosphate buffer (pH 6.5) was added in the incubation solution. […] In this experiment, we incubated compound 2 with GST-pi isozyme in the presence of S-hexylglutathione (2,000 μM), a competitive inhibitor of GST. […] (See FIG. 7).

GST pi isoenzyme [2] = target: T2, GST pi isoenzyme (Mus musculus, UniProt P19157); assay: Time-dependent inhibition of purified GST pi isoenzyme (GSH/CDNB activity assay); settings: for enzyme activity of GST pi: 100 μM compound, GST 1.0 μM, after 5 minutes at 37° C.; for nature of inhibitory effect on GST pi isozyme: summary statement
T2 construct: The three major mouse liver GST isoenzymes were purified according to established methods; from tissue; host or cells: liver of male CD-1 mice
T2 sequence (P19157 2-210 limits assumed): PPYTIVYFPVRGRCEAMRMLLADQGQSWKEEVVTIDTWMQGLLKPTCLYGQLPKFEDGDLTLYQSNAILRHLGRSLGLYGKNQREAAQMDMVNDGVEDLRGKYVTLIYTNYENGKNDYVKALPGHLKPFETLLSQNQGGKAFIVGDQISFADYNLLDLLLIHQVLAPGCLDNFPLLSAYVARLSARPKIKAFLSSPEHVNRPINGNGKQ
Experimental: (§1) The three major mouse liver GST isoenzymes were purified according to established methods. Male CD-1 mice, 25-35 g, were purchased from Charles River Breeding Laboratories, Inc. (Wilmington, Mass.). Animals were housed on autoclaved pine shavings in approved animal care facilities and fed ad libitum for 1 week prior to cervical dislocation.
Mice were killed by cervical dislocation and livers were removed, rinsed with ice-cold 10 mM Tris buffer (pH 7.4) containing 0.25 M sucrose, 1 mM EDTA and 1 mM DTT (buffer A). The tissues were homogenized in buffer A (1 g tissue/2 mL buffer). Centrifugation and all subsequent purification steps were carried out at 4° C. The homogenate was centrifuged at 10,000 g for 30 min. The supernatant fraction was then collected and centrifuged at 100,000 g for 80 min. Supernatant was next passed through a Sephadex G-25 Column (100 cm×2.5 cm) which had been pre-equilibrated in 25 mM potassium phosphate buffer (pH 7.4) containing 1 mM EDTA and 1 mM DTT (buffer B). Column eluants were monitored at 280 nm using an Isco-UA5 detector. The elutant from the G-25 column containing GST activity was applied to an affinity column (11 cm×2.5 cm, GSH-linked agarose, Sigma) at a flow rate of 0.64 ml/min. The first two GST isozymes were eluted using a linear gradient (0-75 mM) of GSH in buffer b (250 mL×250 mL). The third peak containing activity towards CDNB was eluted by using a linear gradient of increasing pH (7.4-9.0) in buffer b which was 75 mM in GSH (150 mL×150 mL). The three main peaks of activity were recovered and pooled separately. Each pool was concentrated to 25-30 mL in an Amicon ultrafiltration cell (Amicon, Inc., Beverly, Mass., USA) with a PM 10 membrane and dialyzed against 4L nanopure water. Pooled proteins were analyzed by ESI/MS to determine purity and subunit molecular weight. […]
(§2) For the enzyme inhibition studies, solutions of alpha, mu and pi glutathione S-transferase (1.0 μg/μl) were prepared in a 0.1 M potassium phosphate buffer (pH 6.5). […] Aliquots were withdrawn at 1, 3, 5, 8 and 12 min, and GST activity was measured using GSH and CDNB as substrates according to the method of Habig et al. (1974) J. Biol. Chem. 249:7130-7139.
In brief, the activity of the enzyme was determined in a 0.1 M potassium phosphate buffer (pH 6.5) containing 1 mM GSH and 1 mM CDNB using an extinction coefficient of 9.6 mM^−1 cm^−1. […] The rate of product formation was monitored by measuring the change in absorbance at 340 nm using a Shimadzu PC-2101 uv-visible spectrophotometer (Shimadzu Scientific Instruments, Columbia, Md., USA). Specific activities are based on protein concentrations as determined by the Bradford protein determination kit from Biorad, Hercules, Calif., USA, using bovine serum albumin as a reference.

GST pi isoenzyme [3] = target: T2, GST pi isoenzyme; assay: Kinetic constants for inhibition of GST pi isoenzyme
Experimental: Compounds 1 and 2 were synthesized and purified as described in Example 1, and GST pi isoenzyme was isolated from mouse liver as described in Example 2. Enzyme inhibition studies were performed as described in Example 3, except that four different concentrations of inhibitor were used. Enzyme assays were performed as described in Example 3.

GST alpha = target: T3, GST alpha (Mus musculus, UniProt P30115); assay: Time-dependent inhibition of purified GST alpha isoenzyme (GSH/CDNB activity assay); settings: 100 μM compound, GST 1.0 μM, after 5 minutes at 37° C.
T3 construct: The three major mouse liver GST isoenzymes were purified according to established methods; from tissue; host or cells: liver of male CD-1 mice
T3 sequence (P30115 2-221 limits assumed): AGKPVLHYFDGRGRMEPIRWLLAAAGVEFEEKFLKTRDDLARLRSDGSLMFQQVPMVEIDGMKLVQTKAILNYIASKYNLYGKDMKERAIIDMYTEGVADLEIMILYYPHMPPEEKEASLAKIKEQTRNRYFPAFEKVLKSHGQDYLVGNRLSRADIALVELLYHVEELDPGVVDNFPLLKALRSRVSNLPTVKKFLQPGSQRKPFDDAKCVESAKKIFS
Experimental: as §1
(§3) Mice were killed by cervical dislocation and livers were removed, rinsed with ice-cold 10 mM Tris buffer (pH 7.4) containing 0.25 M sucrose, 1 mM EDTA and 1 mM DTT (buffer A). The tissues were homogenized in buffer A (1 g tissue/2 mL buffer). Centrifugation and all subsequent purification steps were carried out at 4° C. […] Column eluants were monitored at 280 nm using an Isco-UA5 detector. […] Pooled proteins were analyzed by ESI/MS to determine purity and subunit molecular weight. […]
as §2
(§4) In brief, the activity of the enzyme was determined in a 0.1 M potassium phosphate buffer (pH 6.5) containing 1 mM GSH and 1 mM CDNB using an extinction coefficient of 9.6 mM^−1 cm^−1. […]

GST mu = target: T4, GST mu (Mus musculus, UniProt P10649); assay: Time-dependent inhibition of purified GST mu isoenzyme (GSH/CDNB activity assay); settings: 100 μM compound, GST 1.0 μM, after 5 minutes at 37° C.
T4 construct: The three major mouse liver GST isoenzymes were purified according to established methods; from tissue; host or cells: liver of male CD-1 mice
T4 sequence (P10649 2-218 limits assumed): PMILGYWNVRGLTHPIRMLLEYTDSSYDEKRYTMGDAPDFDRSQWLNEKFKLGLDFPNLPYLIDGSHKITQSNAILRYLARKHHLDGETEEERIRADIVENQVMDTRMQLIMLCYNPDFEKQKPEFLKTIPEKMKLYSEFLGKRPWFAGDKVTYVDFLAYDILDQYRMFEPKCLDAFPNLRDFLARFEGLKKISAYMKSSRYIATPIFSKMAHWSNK
Experimental: as §1, §3, §2, §4

GST pi isozyme [4] = target: T1, GST pi isozyme; assay: Irreversible inhibition of GST pi: activity after incubation and exhaustive dialysis; settings: 10-fold excess of compound, 37° C., 3 hours, then dialysis against 6 changes of water
Experimental: The dialyzed protein sample was dried by lyophilization. The recovered protein was re-dissolved in water, and specific enzyme activity was determined by measuring the protein content and GST activity.

[5] = GST pi 1.0 μM, 37° C., four inhibitor concentrations

T1 sequence (P19157 2-210 limits assumed): as the sequence (P19157 2-210 limits assumed) above

Row | effect of S-hexylglutathione on time-dependent inhibition of GST by compound 2 (GST pi isozyme [1]; S-hexylglutathione 2,000 μM, GST pi 1.0 μM) | Ki (GST pi isoenzyme [3]; GST pi 1.0 μM, 37° C., four inhibitor concentrations, read-out: KI) | kinact/KI (GST pi isoenzyme [3]; GST pi, read-out: kinact/KI ratio (converted)) | enzyme activity of GST alpha remained (GST alpha) | enzyme activity of GST mu remained (GST mu) | Structure (SMILES) | enzyme activity of GST pi (GST pi isoenzyme [2]) | nature of inhibitory effect on GST pi isozyme (GST pi isoenzyme [2]) | kinact (GST pi isoenzyme [3]; [5]) | time in which the enzyme was totally inactivated (GST pi isozyme [1]; GST 1.0 μM, no S-hexylglutathione) | Ki (GST pi isoenzyme [3]) | kinact/KI (GST pi isoenzyme [3]; read-out: kinact/KI ratio) | enzyme activity of modified GST remained relative to the control (GST pi isozyme [4]) | restoration of GST activity by exhaustive dialysis (GST pi isozyme [4])
1 | completely suppressed | – | – | – | – | CCCCCCSC[C@H](NC(=O)CC[C@H](N)C(=O)O)C(=O)NCC(=O)O [S-hexylglutathione, reference compound] | – | – | – | – | – | – | – | –
2 | – | 64.4 µM | 308 M⁻¹ s⁻¹ | about 80% | about 80% | O=C1O/C(=C/Br)CC1CC1OC1c1ccccc1 (stereo not drawn) [compound 1, 3-Cinnamyl-(α,β-epoxy)-5(E)-bromomethylidenetetrahydro-2-furanone] | completely inhibited | time-dependent and irreversible | 0.0198 s⁻¹ | – | – | – | – | –
3 | – | – | – | – | – | O=C1O/C(=C/Br)CC1CC=Cc1ccccc1 (stereo not shown) [compound 2, 3-Cinnamyl-5(E)-bromomethylidenetetrahydro-2-furanone] | completely inhibited | time-dependent and irreversible | 0.00933 s⁻¹ | 8 min | 86.7 µM | 108 M⁻¹ s⁻¹ | 7.8% | not restored

From patent US6495370B1, “Inhibition of glutathione transferase by haloenol lactones” (The Regents of the University of California, priority 1995, dated 2002)
